The test system of this test is RSV A2 strain. Briefly: In vitro CPE (CytoPathic Effect) inhibition effect evaluation test, RSV type A. The note with it: human respiratory syncytial virus; inhibitory effect against RSV type A (RSV A2 strain), HEp-2 cells, CPE inhibition; read-out: EC50. Type of test: cell-based. In outline:
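HEp-2 cells (2.4×10^5 cells/mL, 2% FBS E-MEM) were infected with RSV alongside 3-fold compound dilutions and incubated at 37 °C, 4 days for A2 and 5 days for B Wash/18537. Viable cells quantified by CellTiter-Glo 2.0 luminescence; EC50 by nonlinear regression as 50% CPE inhibition.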
A general note: Cytopathic effects are the visible damage that an infection or toxin causes in cultured cells.
For the compound `O=C(NC1(C(=O)O)C2CC3CC(C2)CC1C3)c1cnc(-c2cn(C3CCC(F)(F)CC3)c3cc(O[C@@H]4CCN(CC(F)(F)F)C4)ccc23)nc1C(F)(F)F` (stereo partly drawn) [Compound I-374], the concentration for a half-maximal effect (EC50) (in general, the concentration needed to bring the measured effect to its halfway point) was < 10 nM. With `O=C(NC1(C(=O)O)C2CC3CC(C2)CC1C3)c1cnc(-c2cn(C3CCC(F)(F)CC3)c3cc(O[C@H]4CCN(CC(F)(F)F)C4)ccc23)nc1C(F)(F)F` (stereo partly drawn) [Compound I-375], the half-maximal effective concentration (EC50) is < 10 nM. For `CC1CN(c2ncc(F)cn2)CCC1Oc1ccc2c(-c3ncc(C(=O)NC4(C(=O)O)C5CC6CC(C5)CC4C6)c(C(F)(F)F)n3)cn(C3CCC(F)(F)CC3)c2c1` (stereo not drawn) [Compound I-376] the value was < 10 nM.

Take `O=C(NC1(C(=O)O)C2CC3CC(C2)CC1C3)c1cnc(-c2cn(C3CCC(F)(F)CC3)c3cc(O[C@H]4CCN(c5ncc(F)cn5)C4)ccc23)nc1C(F)(F)F` (stereo partly drawn) [Compound I-377]: the EC50 is < 10 nM. For `COC1CC(n2cc(-c3ncc(C(=O)NC4(C(=O)O)C5CC6CC(C5)CC4C6)c(C(F)(F)F)n3)c3ccc(OC4CCN(c5ncc(F)cn5)CC4)cc32)C1` (stereo not drawn) [Compound I-378] the value was < 10 nM; for `O=C(NC1(C(=O)O)C2CC3CC(C2)CC1C3)c1cnc(N2CC3(CCOCC3)c3cc(OCC(F)(F)F)ccc32)nc1C(F)(F)F` (stereo not drawn) [Compound I-381], < 10 nM. For the compound `O=C(NC1(C(=O)O)C2CC3CC(C2)CC1C3)c1cnc(N2CC3(CCCCC3)c3cc(OC4CCN(c5ncc(F)cn5)CC4)ccc32)nc1C(F)(F)F` (stereo not drawn) [Compound I-383], the EC50 was < 10 nM. Turning to `O=C(NC1(C(=O)O)C2CC3CC(C2)CC1C3)c1cnc(-c2cn(C3CCC(F)(F)CC3)c3cc(OC4CN(c5ncc(F)cn5)C4)ccc23)nc1C(F)(F)F` (stereo not drawn) [Compound I-387], the 50% effective concentration (EC50) is < 10 nM. For `O=C(NC1(C(=O)O)C2CC3CC(C2)CC1C3)c1cnc(-c2cn(C3CCC(F)(F)CC3)c3cc(OC4CN(CC(F)(F)F)C4)ccc23)nc1C(F)(F)F` (stereo not drawn) [Compound I-388] the value was < 10 nM. As to `O=C(NC1(C(=O)O)C2CC3CC(C2)CC1C3)c1ccc(-c2cn(-c3ccc(F)cc3)c3cc(OC4CCN(c5ncccn5)CC4)ccc23)nc1C(F)(F)F` (stereo not drawn) [Compound I-389], the EC50 is < 10 nM. In the case of `O=C(NC1(C(=O)O)C2CC3CC(C2)CC1C3)c1ccc(-c2cn(-c3cccc(F)c3)c3cc(OC4CCN(c5ncccn5)CC4)ccc23)nc1C(F)(F)F` (stereo not drawn) [Compound I-390], the EC50 is < 10 nM. The result for `O=C(NC1(C(=O)O)C2CC3CC(C2)CC1C3)c1cnc(N2CC3(CCCCC3)c3cc(OC4CCN(c5ncccn5)CC4)c(F)cc32)nc1C(F)(F)F` (stereo not drawn) [Compound I-394] reads < 10 nM; that for `CC1CN(CC(F)(F)F)CCC1Oc1ccc2c(-c3ncc(C(=O)NC4(C(=O)O)C5CC6CC(C5)CC4C6)c(C(F)(F)F)n3)cn(C3CCC(F)(F)CC3)c2c1` (stereo not drawn) [Compound I-403], < 10 nM. For `O=C(NC1(C(=O)O)C2CC3CC(C2)CC1C3)c1cnc(-c2cn(C3CCC(F)(F)CC3)c3cc(OC4CCN(CC(F)(F)C(F)(F)F)CC4)ccc23)nc1C(F)(F)F` (stereo not drawn) [Compound I-408], the concentration for a half-maximal effect (EC50) is < 10 nM.

For the compound `O=C(NC1(C(=O)O)C2CC3CC(C2)CC1C3)c1cnc(-c2cn(C3CCC(F)(F)CC3)c3cc(OC4CCN(CC(F)(F)C(F)F)CC4)ccc23)nc1C(F)(F)F` (stereo not drawn) [Compound I-409], the EC50 was < 10 nM. For `O=C(NC1(C(=O)O)C2CC3CC(C2)CC1C3)c1cnc(-c2cn(C3CCC(F)(F)CC3)c3cc(OC4CCN(c5cc(F)ccn5)CC4)ccc23)nc1C(F)(F)F` (stereo not drawn) [Compound I-411] the value was < 10 nM; for `CC1CC(Oc2ccc3c(-c4ncc(C(=O)NC5(C(=O)O)C6CC7CC(C6)CC5C7)c(C(F)(F)F)n4)cn(C4CCC(F)(F)CC4)c3c2)CCN1CC(F)(F)F` (stereo not drawn) [Compound I-414], < 10 nM.

Regarding `O=C(NC1(C(=O)O)C2CC3CC(C2)CC1C3)c1cnc(-c2cn(C3CCC(F)(F)CC3)c3cc(C(=O)N4CCC(N5CC(F)(F)C5)CC4)ccc23)nc1C(F)(F)F` (stereo not drawn) [Compound I-416], the concentration giving a half-maximal response (EC50) is < 10 nM. For `O=C(NC1(C(=O)O)C2CC3CC(C2)CC1C3)c1cnc(-c2cn(C3CCC(F)(F)CC3)c3cc(CN4CCC(N5CC(F)(F)C5)CC4)ccc23)nc1C(F)(F)F` (stereo not drawn) [Compound I-417], the concentration for a half-maximal effect (EC50) is < 10 nM. Regarding `O=C(NC1(C(=O)O)C2CC3CC(C2)CC1C3)c1cnc(-c2cn(C3CCC(F)(F)CC3)c3cc(OC4CCC(F)(F)CC4)ccc23)nc1C(F)(F)F` (stereo not drawn) [Compound I-419], the half-maximal effective concentration (EC50) is < 10 nM. As for `O=C(NC1(C(=O)O)C2CC3CC(C2)CC1C3)c1cnc(-c2cn(C3CCC(F)(F)CC3)c3cc(OC4CCN(c5ncc(F)s5)CC4)ccc23)nc1C(F)(F)F` (stereo not drawn) [Compound I-420], the EC50 is < 10 nM.

With `O=C(NC1(C(=O)O)C2CC3CC(C2)CC1C3)c1cnc(-c2cn(C3CCC(F)(F)CC3)c3cc(OC4CCN(CC5(F)CC5)CC4)ccc23)nc1C(F)(F)F` (stereo not drawn) [Compound I-425], the concentration giving a half-maximal response (EC50) was < 10 nM. Regarding `O=C(NC1(C(=O)O)C2CC3CC(C2)CC1C3)c1cnc(-c2cn(C3CCC(F)(F)CC3)c3cc(OCCN4CC(F)(F)C4)ccc23)nc1C(F)(F)F` (stereo not drawn) [Compound I-426], the EC50 was < 10 nM.

On to `O=C(NC1(C(=O)O)C2CC3CC(C2)CC1C3)c1cnc(-c2cn(C3CCC(F)(F)CC3)c3cc(OC4CCC(C(F)(F)F)CC4)ccc23)nc1C(F)(F)F` (stereo not drawn) [Compound I-428], for which the EC50 is < 10 nM. `O=C(NC1(C(=O)O)C2CC3CC(C2)CC1C3)c1cnc(-c2cn(C3CCC(F)(F)CC3)c3cc(OC4CCN(c5ncc(F)cc5F)CC4)ccc23)nc1C(F)(F)F` (stereo not drawn) [Compound I-432]: the concentration giving a half-maximal response (EC50) is < 10 nM. For the compound `O=C(NC1(C(=O)O)C2CC3CC(C2)CC1C3)c1cnc(-c2cn(C3CCC(F)(F)CC3)c3cc(C(=O)N4CCN(c5ncc(F)cn5)CC4)ccc23)nc1C(F)(F)F` (stereo not drawn) [Compound I-433], the concentration for a half-maximal effect (EC50) is < 10 nM. On to `O=C(NC1(C(=O)O)C2CC3CC(C2)CC1C3)c1cnc(N2CC3(CCOCC3)c3cc(Nc4ncccn4)ccc32)nc1C(F)(F)F` (stereo not drawn) [Compound I-435], for which the half-maximal effective concentration (EC50) was < 10 nM. As for `O=C(NC1(C(=O)O)C2CC3CC(C2)CC1C3)c1cnc(N2CC3(CCOCC3)c3cc(Nc4ccc(C(F)(F)F)cn4)ccc32)nc1C(F)(F)F` (stereo not drawn) [Compound I-436], the 50% effective concentration (EC50) was < 10 nM. As to `O=C(NC1(C(=O)O)C2CC3CC(C2)CC1C3)c1cnc(N2CC3(CCCCC3)c3c2ccc(OC2CCN(c4ncccn4)CC2)c3F)nc1C(F)(F)F` (stereo not drawn) [Compound I-439], the EC50 is < 10 nM. The result for `CC(F)(F)c1nc(N2CC3(CCCCC3)c3cc(OC4CCN(CC(F)(F)F)CC4)ccc32)nc(C(C)(F)F)c1C(=O)NC1(C(=O)O)C2CC3CC(C2)CC1C3` (stereo not drawn) [Compound I-441] reads 10 to 100 nM; that for `O=C(NC1(C(=O)O)C2CC3CC(C2)CC1C3)c1cnc(N2CC3(CCOCC3)c3cc(OCCC(F)(F)F)ccc32)nc1C(F)(F)F` (stereo not drawn) [Compound I-442], < 10 nM; that for `O=C(NC1(C(=O)O)C2CC3CC(C2)CC1C3)c1cnc(-c2cn(Cc3ccccc3)c3cc(OC4CCN(c5ncc(F)cn5)CC4)ccc23)nc1C(F)(F)F` (stereo not drawn) [Compound I-446], < 10 nM. As to `CN(CC(F)(F)F)[C@H]1CC[C@@H](Oc2ccc3c(-c4ncc(C(=O)NC5(C(=O)O)C6CC7CC(C6)CC5C7)c(C(F)(F)F)n4)cn(C4CCC(F)(F)CC4)c3c2)CC1` (stereo partly drawn) [Compound I-448], the EC50 is < 10 nM. As for `CN(CC(F)(F)F)[C@H]1CC[C@H](Oc2ccc3c(-c4ncc(C(=O)NC5(C(=O)O)C6CC7CC(C6)CC5C7)c(C(F)(F)F)n4)cn(C4CCC(F)(F)CC4)c3c2)CC1` (stereo partly drawn) [Compound I-450], the concentration giving a half-maximal response (EC50) is < 10 nM. For `COc1ccc2c(c1)c(-c1ncc(C(=O)NC3(C(=O)O)C4CC5CC(C4)CC3C5)c(C(F)(F)F)n1)cn2C1CCC(F)(F)CC1` (stereo not drawn) [Compound I-454], the 50% effective concentration (EC50) was 10 to 100 nM. With `COc1ccc2c(-c3ncc(C(=O)NC4(C(=O)O)C5CC6CC(C5)CC4C6)c(C(F)(F)F)n3)cn(C3CCC(F)(F)CC3)c2c1` (stereo not drawn) [Compound I-455], the EC50 lay in the range of 10 to 100 nM. For `O=C(NC1(C(=O)O)C2CC3CC(C2)CC1C3)c1cnc(N2CC3(CCCCC3)c3cc(O[C@H]4CC[C@H](ON=C5CCC(F)(F)CC5)CC4)ccc32)nc1C(F)(F)F` (stereo partly drawn) [Compound I-456] the value was 10 to 100 nM. With `O=C(NC1(C(=O)O)C2CC3CC(C2)CC1C3)c1cnc(N2CC3(CCCCC3)c3cc(O[C@H]4CC[C@@H](ON=C5CCC(F)(F)CC5)CC4)ccc32)nc1C(F)(F)F` (stereo partly drawn) [Compound I-457], the concentration for a half-maximal effect (EC50) was 10 to 100 nM. In the case of `O=C(NC1(C(=O)O)C2CC3CC(C2)CC1C3)c1cnc(N2CC3(CCOCC3)c3cc(OCC(F)F)ccc32)nc1C(F)(F)F` (stereo not drawn) [Compound I-459], the half-maximal effective concentration (EC50) is < 10 nM. Take `O=C(NC1(C(=O)O)C2CC3CC(C2)CC1C3)c1cnc(N2CC3(CCCCC3)c3cc(O[C@H]4CC[C@H](ON=C5CC(F)(F)C5)CC4)ccc32)nc1C(F)(F)F` (stereo partly drawn) [Compound I-460]: the EC50 is < 10 nM. For `O=C(NC1(C(=O)O)C2CC3CC(C2)CC1C3)c1cnc(N2CC3(CCCCC3)c3cc(O[C@H]4CC[C@@H](ON=C5CC(F)(F)C5)CC4)ccc32)nc1C(F)(F)F` (stereo partly drawn) [Compound I-461], the EC50 lay within 10 to 100 nM. With `O=C(NC1(C(=O)O)C2CC3CC(C2)CC1C3)c1cnc(N2CC3(CCCC3)c3cc(O[C@H]4CC[C@H](N5CC(F)(F)C5)CC4)ccc32)nc1C(F)(F)F` (stereo partly drawn) [Compound I-462], the concentration for a half-maximal effect (EC50) was < 10 nM.

For the compound `O=C(NC1(C(=O)O)C2CC3CC(C2)CC1C3)c1cnc(-c2cn(-c3ncccn3)c3cc(OC4CCN(c5ncc(F)cn5)CC4)ccc23)nc1C(F)(F)F` (stereo not drawn) [Compound I-468], the concentration giving a half-maximal response (EC50) is < 10 nM. Regarding `O=C(NC1(C(=O)O)C2CC3CC(C2)CC1C3)c1cnc(-c2cn(CCc3ccccc3)c3cc(OC4CCN(c5ncc(F)cn5)CC4)ccc23)nc1C(F)(F)F` (stereo not drawn) [Compound I-469], the half-maximal effective concentration (EC50) was < 10 nM. `O=C(NC1(C(=O)O)C2CC3CC(C2)CC1C3)c1cnc(N2CC3(CCOCC3)c3cc(-n4ncc5cccnc54)ccc32)nc1C(F)(F)F` (stereo not drawn) [Compound I-471]: the EC50 was < 10 nM.

Source of the values: patent US12528790B2, “Amide derivative having antiviral activity” (Shionogi & Co., Ltd., priority 2020, dated 2026).
